The values that follow come from patent publication US11759462B2, “Spirocyclic compounds as tryptophan hydroxylase inhibitors” (priority 2013, dated 2023).

A word on the IC50: it is the concentration needed to halve the response being measured.

Where two headings read alike, the source gives them in different places. Where only a bound is given, the exact number is not on record here.

This assay has as its target T1, Recombinant human TPH1 (MBP tagged) (Homo sapiens, UniProt P17752).
T1 construct: cloning full length human TPH1 cDNA in to a bacterial pMAL-c5E expression vector; made in house; host or cells: E. coli BL21 (DE3)
T1 sequence (P17752 1-444): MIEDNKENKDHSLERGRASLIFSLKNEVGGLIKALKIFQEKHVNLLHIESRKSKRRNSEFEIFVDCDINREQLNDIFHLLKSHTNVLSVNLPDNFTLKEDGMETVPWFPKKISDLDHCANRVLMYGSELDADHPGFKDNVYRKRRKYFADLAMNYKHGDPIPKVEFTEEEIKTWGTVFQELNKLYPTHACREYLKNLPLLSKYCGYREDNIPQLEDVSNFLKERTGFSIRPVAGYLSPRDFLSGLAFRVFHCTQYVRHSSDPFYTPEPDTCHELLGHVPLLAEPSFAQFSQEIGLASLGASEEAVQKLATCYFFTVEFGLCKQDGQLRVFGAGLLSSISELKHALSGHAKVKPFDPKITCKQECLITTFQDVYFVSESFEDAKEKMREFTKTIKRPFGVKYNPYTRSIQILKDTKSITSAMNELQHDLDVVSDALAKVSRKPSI
Description: TPH1 in vitro inhibition assay (kinetic fluorescence). It is filed as biochemical. The method, boiled down:
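Final mix: 15 nM MBP-TPH1, 30 μM Trp, 36 μM 6-methyltetrahydropterin, 25 μM ferrous ammonium sulfate, 50 mM MES pH 7.1, 1% DMSO, room temperature.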

Where [1] appears, read: read-out: TPH1 Range (TPH1 inhibition IC50).

For `Nc1nc(O[C@H](c2ccc(-c3ccc4ccncc4c3)cc2)C(F)(F)F)cc(N2CCC3(CC2)CN[C@H](C(=O)O)C3)n1` [Example 55be, (S)-8-(2-amino-6-((R)-2,2,2-trifluoro-1-(4-(isoquinolin-7-yl)phenyl)ethoxy)pyrimidin-4-yl)-2,8-diazaspiro[4.5]decane-3-carboxylic acid], the IC50 under setting [1] was below 50 nM. For the molecule `CN(C)Cc1ccc(-c2ccc([C@@H](Oc3cc(N4CCC5(CC4)CN[C@H](C(=O)O)C5)nc(N)n3)C(F)(F)F)cc2)cc1` [Example 55bf, (S)-8-(2-amino-6-((R)-1-(4′-((dimethylamino)methyl)-[1,1′-biphenyl]-4-yl)-2,2,2-trifluoroethoxy)pyrimidin-4-yl)-2,8-diazaspiro[4.5]decane-3-carboxylic acid], the IC50 under setting [1] lay in the range of 50 to 300 nM. As to `Nc1nc(O[C@H](c2ccc(-c3ccc4cccnc4c3)cc2)C(F)(F)F)cc(N2CCC3(CC2)CN[C@H](C(=O)O)C3)n1` [Example 55bh, (S)-8-(2-amino-6-((R)-2,2,2-trifluoro-1-(4-(quinolin-7-yl)phenyl)ethoxy)pyrimidin-4-yl)-2,8-diazaspiro[4.5]decane-3-carboxylic acid], the IC50 under setting [1] is 50 to 300 nM. Same read-out and setting: in the case of `Nc1nc(O[C@H](c2ccc(-c3ccc4nccnc4c3)cc2)C(F)(F)F)cc(N2CCC3(CC2)CN[C@H](C(=O)O)C3)n1` [Example 55bi, (S)-8-(2-amino-6-((R)-2,2,2-trifluoro-1-(4-(quinoxalin-6-yl)phenyl)ethoxy)pyrimidin-4-yl)-2,8-diazaspiro[4.5]decane-3-carboxylic acid] it was below 50 nM. For the molecule `CN1CCc2cc(-c3ccc([C@@H](Oc4cc(N5CCC6(CC5)CN[C@H](C(=O)O)C6)nc(N)n4)C(F)(F)F)cc3)ccc2C1=O` [Example 55bj, (S)-8-(2-amino-6-((R)-2,2,2-trifluoro-1-(4-(2-methyl-1-oxo-1,2,3,4-tetrahydroisoquinolin-6-yl)phenyl)ethoxy)pyrimidin-4-yl)-2,8-diazaspiro[4.5]decane-3-carboxylic acid], the IC50 (TPH1 Range (TPH1 inhibition IC50)) is below 50 nM.

Consider `Nc1nc(O[C@H](c2ccc(-c3ccc4ncncc4c3)cc2)C(F)(F)F)cc(N2CCC3(CC2)CN[C@H](C(=O)O)C3)n1` [Example 55bk, (S)-8-(2-amino-6-((R)-2,2,2-trifluoro-1-(4-(quinazolin-6-yl)phenyl)ethoxy)pyrimidin-4-yl)-2,8-diazaspiro[4.5]decane-3-carboxylic acid], for which the concentration for half-maximal inhibition (IC50) under setting [1] was in the range of 50 to 300 nM. Same read-out and setting: next, `COc1cc(F)ccc1-c1ccc([C@@H](Oc2cc(N3CCC4(CC3)CN[C@H](C(=O)O)C4)nc(N)n2)C(F)(F)F)cc1` [Example 55bl, (S)-8-(2-amino-6-((R)-2,2,2-trifluoro-1-(4′-fluoro-2′-methoxy-[1,1′-biphenyl]-4-yl)ethoxy)pyrimidin-4-yl)-2,8-diazaspiro[4.5]decane-3-carboxylic acid]: 300 to 3000 nM; `COc1cccc(-c2ccc([C@@H](Oc3cc(N4CCC5(CC4)CN[C@H](C(=O)O)C5)nc(N)n3)C(F)(F)F)cc2)c1F` [Example 55bm, (S)-8-(2-amino-6-((R)-2,2,2-trifluoro-1-(2′-fluoro-3′-methoxy-[1,1′-biphenyl]-4-yl)ethoxy)pyrimidin-4-yl)-2,8-diazaspiro[4.5]decane-3-carboxylic acid]: 300 to 3000 nM; `COc1ccc(F)c(-c2ccc([C@@H](Oc3cc(N4CCC5(CC4)CN[C@H](C(=O)O)C5)nc(N)n3)C(F)(F)F)cc2)c1` [Example 55bn, (S)-8-(2-amino-6-((R)-2,2,2-trifluoro-1-(2′-fluoro-5′-methoxy-[1,1′-biphenyl]-4-yl)ethoxy)pyrimidin-4-yl)-2,8-diazaspiro[4.5]decane-3-carboxylic acid]: 3000 to 10000 nM.

As for `Cc1ccc(-c2ccc([C@@H](Oc3cc(N4CCC5(CC4)CN[C@H](C(=O)O)C5)nc(N)n3)C(F)(F)F)cc2)cn1` [Example 55bo, (S)-8-(2-amino-6-((R)-2,2,2-trifluoro-1-(4-(6-methylpyridin-3-yl)phenyl)ethoxy)pyrimidin-4-yl)-2,8-diazaspiro[4.5]decane-3-carboxylic acid], under setting [1], the half-maximal inhibitory concentration (IC50) lay in the range of 50 to 300 nM. Consider `Nc1nc(O[C@H](c2ccc(-c3ccc(C(=O)N4CCCC4)cc3)cc2)C(F)(F)F)cc(N2CCC3(CC2)CN[C@H](C(=O)O)C3)n1` [Example 55bp, (S)-8-(2-amino-6-((R)-2,2,2-trifluoro-1-(4′-(pyrrolidine-1-carbonyl)-[1,1′-biphenyl]-4-yl)ethoxy)pyrimidin-4-yl)-2,8-diazaspiro[4.5]decane-3-carboxylic acid], for which the 50% inhibitory concentration (IC50) under setting [1] was 50 to 300 nM. The same measure, in the same setting: in the case of `Nc1nc(O[C@H](c2ccc(-c3cccc(C(=O)O)c3)cc2)C(F)(F)F)cc(N2CCC3(CC2)CN[C@H](C(=O)O)C3)n1` [Example 55bq, (S)-8-(2-amino-6-((R)-1-(3′-carboxy-[1,1′-biphenyl]-4-yl)-2,2,2-trifluoroethoxy)pyrimidin-4-yl)-2,8-diazaspiro[4.5]decane-3-carboxylic acid] it was 300 to 3000 nM.

As to `Nc1nc(O[C@H](c2ccc(-c3ccc(C(=O)O)cc3)cc2)C(F)(F)F)cc(N2CCC3(CC2)CN[C@H](C(=O)O)C3)n1` [Example 55br, (S)-8-(2-amino-6-((R)-1-(4′-carboxy-[1,1′-biphenyl]-4-yl)-2,2,2-trifluoroethoxy)pyrimidin-4-yl)-2,8-diazaspiro[4.5]decane-3-carboxylic acid], under setting [1], the 50% inhibitory concentration (IC50) was 300 to 3000 nM. Still for that read-out and setting: in the case of `CCCc1ccc(-c2ccc([C@@H](Oc3cc(N4CCC5(CC4)CN[C@H](C(=O)O)C5)nc(N)n3)C(F)(F)F)cc2)cc1` [Example 55bs, (S)-8-(2-amino-6-((R)-2,2,2-trifluoro-1-(4′-propyl-[1,1′-biphenyl]-4-yl)ethoxy)pyrimidin-4-yl)-2,8-diazaspiro[4.5]decane-3-carboxylic acid] it was 300 to 3000 nM; in that of `Nc1nc(O[C@H](c2ccc(-c3cccc(CO)c3)cc2)C(F)(F)F)cc(N2CCC3(CC2)CN[C@H](C(=O)O)C3)n1` [Example 55bt, (S)-8-(2-amino-6-((R)-2,2,2-trifluoro-1-(3′-(hydroxymethyl)-[1,1′-biphenyl]-4-yl)ethoxy)pyrimidin-4-yl)-2,8-diazaspiro[4.5]decane-3-carboxylic acid], 300 to 3000 nM; in that of `Nc1nc(O[C@H](c2ccc(-c3ccccc3CO)cc2)C(F)(F)F)cc(N2CCC3(CC2)CN[C@H](C(=O)O)C3)n1` [Example 55bu, (S)-8-(2-amino-6-((R)-2,2,2-trifluoro-1-(2′-(hydroxymethyl)-[1,1′-biphenyl]-4-yl)ethoxy)pyrimidin-4-yl)-2,8-diazaspiro[4.5]decane-3-carboxylic acid], 300 to 3000 nM. The same measure, in the same setting: in the case of `CC(C)Oc1ccc(-c2ccc([C@@H](Oc3cc(N4CCC5(CC4)CN[C@H](C(=O)O)C5)nc(N)n3)C(F)(F)F)cc2)cc1` [Example 55bv, (S)-8-(2-amino-6-((R)-2,2,2-trifluoro-1-(4′-isopropoxy-[1,1′-biphenyl]-4-yl)ethoxy)pyrimidin-4-yl)-2,8-diazaspiro[4.5]decane-3-carboxylic acid] it was 300 to 3000 nM; in that of `CN(C)C(=O)c1ccc(-c2ccc([C@@H](Oc3cc(N4CCC5(CC4)CN[C@H](C(=O)O)C5)nc(N)n3)C(F)(F)F)cc2)cc1` [Example 55bw, (S)-8-(2-amino-6-((R)-1-(4′-(dimethylcarbamoyl)-[1,1′-biphenyl]-4-yl)-2,2,2-trifluoroethoxy)pyrimidin-4-yl)-2,8-diazaspiro[4.5]decane-3-carboxylic acid], 50 to 300 nM; in that of `Nc1nc(O[C@H](c2ccc(-c3cccc(C(=O)N4CCCCC4)c3)cc2)C(F)(F)F)cc(N2CCC3(CC2)CN[C@H](C(=O)O)C3)n1` [Example 55bx, (S)-8-(2-amino-6-((R)-2,2,2-trifluoro-1-(3′-(piperidine-1-carbonyl)-[1,1′-biphenyl]-4-yl)ethoxy)pyrimidin-4-yl)-2,8-diazaspiro[4.5]decane-3-carboxylic acid], 300 to 3000 nM. `CN(C)Cc1ccccc1-c1ccc([C@@H](Oc2cc(N3CCC4(CC3)CN[C@H](C(=O)O)C4)nc(N)n2)C(F)(F)F)cc1` [Example 55by, (S)-8-(2-amino-6-((R)-1-(2′-((dimethylamino)methyl)-[1,1′-biphenyl]-4-yl)-2,2,2-trifluoroethoxy)pyrimidin-4-yl)-2,8-diazaspiro[4.5]decane-3-carboxylic acid]: under setting [1], the concentration for half-maximal inhibition (IC50) is 300 to 3000 nM.

As for `CCc1ccc(-c2ccc([C@@H](Oc3cc(N4CCC5(CC4)CN[C@H](C(=O)O)C5)nc(N)n3)C(F)(F)F)cc2)cc1` [Example 55bz, (S)-8-(2-amino-6-((R)-1-(4′-ethyl-[1,1′-biphenyl]-4-yl)-2,2,2-trifluoroethoxy)pyrimidin-4-yl)-2,8-diazaspiro[4.5]decane-3-carboxylic acid], under setting [1], the concentration for half-maximal inhibition (IC50) lay within 50 to 300 nM. Take `Cn1cnc2cc(-c3ccc([C@@H](Oc4cc(N5CCC6(CC5)CN[C@H](C(=O)O)C6)nc(N)n4)C(F)(F)F)cc3)ccc21` [Example 55c, (S)-8-(2-amino-6-((R)-2,2,2-trifluoro-1-(4-(1-methyl-1H-benzo[d]imidazol-5-yl)phenyl)ethoxy)pyrimidin-4-yl)-2,8-diazaspiro[4.5]decane-3-carboxylic acid]: the half-maximal inhibitory concentration (IC50) under setting [1] fell in the range of 50 to 300 nM.
